Key:
Assay type in all cases: in vivo
[1] = tested on: Amaranthus retroflexus; assay: Post-emergence herbicidal action against AMARE; settings: visual assessment about 3 weeks after treatment
Summary of the method: (§1)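 A WP or EC formulation diluted in water with 0.2% wetting agent was sprayed at 600 to 800 l/ha onto one-leaf-stage plants grown in sandy loam. About 3 weeks later, action was rated visually in percent, 100% being dead plants.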

[2] = tested on: Viola tricolor; assay: Post-emergence herbicidal action against VIOTR
Summary of the method: as §1

[3] = tested on: Veronica persica; assay: Pre-emergence herbicidal action against VERPE; settings: 80 g/ha
Summary of the method: (§2)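 Greenhouse pots of sandy loam held seeds covered with soil, onto which the compound was applied before emergence. An aqueous suspension or emulsion of WP or EC was used at 600 to 800 l/ha with 0.2% wetting agent. Percent damage was judged visually at 3 weeks.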

[4] = tested on: Matricaria inodora; assay: Pre-emergence herbicidal action against MATIN; settings: visual score after 3 weeks vs untreated controls
Summary of the method: as §2

[5] = tested on: Abutilon theophrasti; assay: Post-emergence herbicidal action against ABUTH
Summary of the method: as §1

[6] = tested on: Alopecurus myosuroides; assay: Pre-emergence herbicidal action against ALOMY; settings: visual score after 3 weeks vs untreated controls
Summary of the method: as §2

[7] = tested on: Abutilon theophrasti; assay: Pre-emergence herbicidal action against ABUTH; settings: visual score after 3 weeks vs untreated controls
Summary of the method: as §2

[8] = tested on: Pharbitis purpurea; assay: Pre-emergence herbicidal action against PHBPU; settings: 80 g/ha; visual score after 3 weeks vs untreated controls
Excerpt: Seeds of monocotyledonous and dicotyledonous weed plants and crop plants are laid out in sandy loam soil in wood-fiber pots and covered with soil. The compounds of the invention, formulated in the form of wettable powders (WP) or as emulsion concentrates (EC), are then applied to the surface of the covering soil in the form of an aqueous suspension or emulsion at a water application rate equivalent to 600 to 800 l/ha, with addition of 0.2% wetting agent. After the treatment, the pots are placed in a greenhouse and kept under good growth conditions for the trial plants. The damage to the test plants is scored visually after a test period of 3 weeks by comparison with untreated controls (herbicidal activity in percent (%): 100% activity=the plants have died, 0% activity=like control plants). […] The tables below illustrate, in an illustrative manner, the post-emergence herbicidal action of the compounds of the invention, the herbicidal activity being stated in percent.

[9] = tested on: Veronica persica; assay: Post-emergence herbicidal action against VERPE; settings: 20 g/ha, visual assessment about 3 weeks after treatment
Summary of the method: as §1

[10] = tested on: Setaria viridis; assay: Pre-emergence herbicidal action against SETVI; settings: 80 g/ha
Summary of the method: as §2

[11] = tested on: Echinochloa crus-galli; assay: Post-emergence herbicidal action against ECHCG; settings: 20 g/ha, visual assessment about 3 weeks after treatment
Summary of the method: as §1

[12] = tested on: Pharbitis purpurea; assay: Post-emergence herbicidal action against PHBPU; settings: visual assessment about 3 weeks after treatment
Summary of the method: as §1

[13] = tested on: Setaria viridis; assay: Post-emergence herbicidal action against SETVI; settings: visual assessment about 3 weeks after treatment
Summary of the method: as §1

[14] = tested on: Amaranthus retroflexus; assay: Pre-emergence herbicidal action against AMARE; settings: visual score after 3 weeks vs untreated controls
Summary of the method: as §2

[15] = tested on: Viola tricolor; assay: Pre-emergence herbicidal action against VIOTR
Summary of the method: as §2

[16] = tested on: Echinochloa crus-galli; assay: Pre-emergence herbicidal action against ECHCG; settings: 80 g/ha; visual score after 3 weeks vs untreated controls
Summary of the method: as §2

[17] = tested on: Avena fatua; assay: Post-emergence herbicidal action against AVEFA; settings: 20 g/ha, visual assessment about 3 weeks after treatment
Summary of the method: as §1

[18] = tested on: Matricaria inodora; assay: Post-emergence herbicidal action against MATIN; settings: visual assessment about 3 weeks after treatment
Summary of the method: as §1

[19] = tested on: Avena fatua; assay: Pre-emergence herbicidal action against AVEFA; settings: 80 g/ha; visual score after 3 weeks vs untreated controls
Summary of the method: as §2

[20] = tested on: Digitaria sanguinalis; assay: Pre-emergence herbicidal action against DIGSA
Summary of the method: as §2

[21] = tested on: Polygonum convolvulus; assay: Pre-emergence herbicidal action against POLCO; settings: 80 g/ha
Summary of the method: as §2

[22] = tested on: Alopecurus myosuroides; assay: Post-emergence herbicidal action against ALOMY; settings: 20 g/ha
Summary of the method: as §1

Structure (SMILES)	Post-emergence action against AMARE in % ([1]; 5 g/ha)	Post-emergence action against AMARE in % ([1]; 20 g/ha)	Post-emergence action against VIOTR in % ([2]; 20 g/ha)	Pre-emergence action against VERPE [3]	Pre-emergence action against MATIN ([4]; 80 g/ha)	Post-emergence action against ABUTH ([5]; 5 g/ha)	Post-emergence action against ABUTH ([5]; 20 g/ha)	Pre-emergence action against ALOMY ([6]; 80 g/ha)	Pre-emergence action against ABUTH ([7]; 20 g/ha)	Pre-emergence action against ABUTH ([7]; 80 g/ha)	Pre-emergence action against PHBPU [8]	Post-emergence action against VERPE in % [9]	Pre-emergence action against SETVI [10]	Post-emergence action against ECHCG in % [11]	Post-emergence action against PHBPU in % ([12]; 20 g/ha)	Post-emergence action against SETVI in % ([13]; 5 g/ha)	Post-emergence action against SETVI in % ([13]; 20 g/ha)	Pre-emergence action against AMARE ([14]; 20 g/ha)	Pre-emergence action against AMARE ([14]; 80 g/ha)	Pre-emergence action against VIOTR ([15]; 80 g/ha)	also measured
CCN(CC)C(=O)c1c(Br)ccc(C(=O)Nc2nnnn2C)c1Cl [Example 1-200]	100%	100%	80%	100%	100%	80%	90%	100%	90%	100%	80%	90%	100%	100%	90%	80%	90%	90%	100%	100%	Post-emergence action against VIOTR in % ([2]; 5 g/ha): 80%
CCn1nnnc1NC(=O)c1ccc(C(F)(F)F)c(C(=O)N(C)CC(F)F)c1Cl [Example 2-128]	–	–	–	100%	100%	80%	80%	100%	–	100%	80%	80%	100%	80%	80%	–	80%	100%	100%	100%	Pre-emergence action against MATIN ([4]; 20 g/ha): 100%; Pre-emergence action against ECHCG [16]: 90%; Post-emergence action against AVEFA in % [17]: 80%; Post-emergence action against MATIN in % ([18]; 5 g/ha): 80%; Post-emergence action against MATIN in % ([18]; 20 g/ha): 90%; Pre-emergence action against AVEFA [19]: 100%; Pre-emergence action against DIGSA ([20]; 20 g/ha): 90%; Pre-emergence action against DIGSA ([20]; 80 g/ha): 100%; Post-emergence action against PHBPU in % ([12]; 5 g/ha): 80%; Pre-emergence action against POLCO [21]: 100%; Pre-emergence action against VIOTR ([15]; 20 g/ha): 100%
CCN(CC)C(=O)c1c(Br)ccc(C(=O)Nc2nnnn2CC)c1Cl [Example 2-200]	100%	100%	100%	90%	100%	80%	100;; %	100%	100%	100%	90%	90%	100%	–	80%	100%	100%	100%	100%	100%	Pre-emergence action against MATIN ([4]; 20 g/ha): 90%; Pre-emergence action against ECHCG [16]: 90%; Pre-emergence action against ALOMY ([6]; 20 g/ha): 90%; Post-emergence action against MATIN in % ([18]; 20 g/ha): 80;; %; Pre-emergence action against AVEFA [19]: 90%; Post-emergence action against ALOMY [22]: 100%; Pre-emergence action against VIOTR ([15]; 20 g/ha): 80%

Reference: patent US12599136B2, “Substituted isophthalic acid diamides and their use as herbicides” (Bayer Aktiengesellschaft, priority 2020, dated 2026)
